We go through 5 molecules from patent publication US5591602A (priority 1993, dated 1997).

One test has as its system μ receptors. Particulars: cited from earlier work.
The next test relates to enkephalins. Conditions: peripheral administration; Bertolucci et al., 1992; cited from earlier work.
For test [1], the system named is all known opioid receptor subtypes. Conditions: cited from earlier work.
The subject of another test is κ and ε sites. Particulars: brain; Chang et al., 1981; cited from earlier work.
The subject of the next test is ε receptors. Kind of test: inhibition of cAMP formation in BHK cells expressing ε receptors. Format: cell-based, human. (Changes in cAMP serve as a functional read-out for many G protein-coupled receptors.)
The next test addresses T1, ε opioid receptor (Homo sapiens, UniProt P48145).
T1 construct: a 2 kb fragment was removed from the 5' untranslated region of the gene and the shortened insert (2.5 kb) was subcloned; expressed in transfected cells; host or cells: COS and BHK cells (pRC/CMV vector)
T1 sequence (P48145 1-328 S296T): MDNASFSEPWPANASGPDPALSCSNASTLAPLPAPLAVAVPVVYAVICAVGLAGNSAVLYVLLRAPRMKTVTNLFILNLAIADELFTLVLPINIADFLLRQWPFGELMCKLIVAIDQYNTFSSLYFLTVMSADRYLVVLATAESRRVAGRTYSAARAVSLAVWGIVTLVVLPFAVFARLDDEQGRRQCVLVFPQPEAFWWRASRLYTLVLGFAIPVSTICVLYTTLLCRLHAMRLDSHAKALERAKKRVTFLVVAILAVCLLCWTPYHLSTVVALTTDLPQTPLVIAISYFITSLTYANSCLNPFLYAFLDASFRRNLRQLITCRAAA
Kind of test: ligand affinity/interaction profile of the cloned receptor. Type of test: binding.

Test [2] concerns U-69, 593 insensitive benzoinorphan site. Conditions: Nock et al., 1993; cited from earlier work.

On to `CN1CC[C@]23c4c5ccc(O)c4O[C@H]2[C@@H](O)C=C[C@H]3[C@H]1C5` [Morphine], for which the “interaction with μ receptors (in words)” value in the test with μ receptors was “interacts principally with μ receptors”. Also, the “release of enkephalins (in words)” value with enkephalins is reported as “induces release of enkephalins”. Regarding `CCC12CCN(CC3(O)CC3)C(Cc3ccc(O)cc31)C2(C)C` (stereo not shown) [[^3 H]bremazocine], the “affinity for all known opioid receptor subtypes (in words)” value in test [1] is given as “high affinity”. Consider `CC[C@]12CCN(CC3CC3)[C@H](C(=O)c3ccc(O)cc31)[C@@H]2C` [ethylketocyclazocine], for which the “labelling of opioid binding sites (in words)” value in the test with κ and ε sites is “label two populations of non-μ, non-δ opioid binding sites”.

Consider `CN1CC[C@]23CCCC[C@H]2[C@H]1Cc1ccc(O)cc13` [levorphanol], for which the “inhibition of cAMP formation” value in the test on ε receptors was “inhibition of cAMP formation”. “β-endorphin: endogenous opioid peptide with high affinity for the ε receptor”: the “affinity of the receptor for the ligand (in words)” value in the test with ε opioid receptor is “high affinity”. The “affinity for the U-69,593 insensitive site (in words)” value in test [2] was “high affinity”.
